# Results from US20250360109A1, “COMPOSITIONS AND METHODS FOR TREATING DEPRESSION IN FEMALES” (priority 2022, published 2025).
# Legend:
# [1] = tested on: adult subjects with major depressive disorder (MDD); assay: Phase 2 placebo-controlled study in MDD, Sheehan Disability Scale (SDS); type: in vivo, human; details: mITT; for Change from Baseline, SDS Total at Week 2, LSM Difference (95% CI) / Change from Baseline, SDS Total at Week 4, LSM Difference (95% CI): 20 mg/day vs Placebo; for Change from Baseline, SDS Total at Week 2, Mean (SD) / Change from Baseline, SDS Total at Week 2, Median / Change from Baseline, SDS Total at Week 4, Mean (SD) / Change from Baseline, SDS Total at Week 4, Median / SDS Total at Week 2, Mean (SD) / SDS Total at Week 2, Median / SDS Total at Week 4, Mean (SD) / SDS Total at Week 4, Median: 20 mg/day
# Experimental: (§1) A Phase 2, multicenter, double-blind, randomized, placebo-controlled study of the safety and efficacy of SP-624 in the treatment of adult subjects with major depressive disorder (MDD) as defined by the Diagnostic and Statistical Manual of Mental Disorders, Fifth Edition (DSM-5) was carried out. Following the successful completion of a Screening Phase, subjects were randomized to one of two treatment groups in a 1:1 ratio and received Compound 1 (SP-624) or placebo over a treatment period of four weeks (Treatment Group #1: SP-624 20 mg/day; Treatment Group #2: Placebo).
# (§2) Prior to initiating the 4-week treatment period, subjects completed a Screening/Baseline period of up to 28 days, during which time all screening assessments were performed, and any current depression medications discontinued. All screening assessments were completed before discontinuing any current depression medications. Subjects returned for a Baseline Visit to complete efficacy and safety assessments. During the treatment period, subjects returned to the investigative site to complete efficacy and safety assessments at the end of Weeks 1, 2, 3, and 4. After the final dose of study drug, subjects completed a follow-up period of two weeks and returned at the end of Weeks 5 and 6. Subjects may be treated with anti-depressant medications according to physician recommendations after completion of the Week 5 Visit.
# (§3) Each dose of Compound 1 was supplied as two capsules, each containing 10 mg of active pharmaceutical ingredient (API). Matching placebo capsules identical in shape and color to the active capsules were used.
# (§4) Secondary efficacy endpoints included: • Change from Baseline to Weeks 1, 2, and 3 in MADRS total score, • Change from Baseline to Weeks 1, 2, 3, and 4 in Clinical Global Impression-Severity (CGI-S) total score, • Change from Baseline to Week 5 and change from Week 4 to Week 5 in MADRS total score and CGI-S total score, • Change from Baseline to Week 2 and Week 4 in the 17-item Hamilton Depression Rating Scale (HAM D-17) total score, • Change from Baseline to Week 2 and Week 4 in the Sheehan Disability Scale (SDS), • Change from Baseline to Week 2 and Week 4 in the Quick Inventory of Depressive Symptomology-Self Report (QIDS-SR), and • Change from Baseline to Week 2 and Week 4 in the Quality of Life Enjoyment and Satisfaction Questionnaire-Short Form (Q-LES-Q-SF).
# [2] = tested on: adult subjects with major depressive disorder (MDD); assay: Phase 2 placebo-controlled study in MDD, Montgomery-Asberg Depression Rating Scale (MADRS) total score; type: in vivo, human; details: mITT
# Experimental: as §1, §2, §3
# The primary efficacy endpoint was Change from Baseline to Week 4 in Montgomery-Asberg Depression Rating Scale (MADRS) total score.
# as §4
# [3] = Female, 20 mg/day vs Placebo, MMRM
compound,measurement,setting,value
"COC1=CC(=O)C[C@@H](C)[C@]12Oc1c(Cl)c(-c3nnc(C)o3)cc(OC)c1C2=O [SP-624, (2S,6′R)-7-Chloro-2′,4-dimethoxy-6′-methyl-6-(5-methyl-1,3,4-oxadiazol-2-yl)-3H-spiro[1-benzofuran-2,1′-cyclohex [2]ene]-3,4′-dione]","Change from Baseline, SDS Total at Week 2, LSM Difference (95% CI)",[1]; Female,"−1.7 (−3.3, −0.1)"
same,"Change from Baseline, SDS Total at Week 4, LSM Difference (95% CI)",[1]; Female,"−2.0 (−3.8, −0.2)"
same,"Change from Baseline, SDS Total at Week 2, Mean (SD)",[1]; Female,−4.7 (5.74)
same,"Change from Baseline, SDS Total at Week 2, Median",[1]; Female,−4
same,"Change from Baseline, SDS Total at Week 4, Mean (SD)",[1]; Female,−5.8 (6.70)
same,"Change from Baseline, SDS Total at Week 4, Median",[1]; Female,−5
same,"SDS Total at Week 2, Mean (SD)",[1]; Female,11.8 (6.24)
same,"SDS Total at Week 2, Median",[1]; Female,11
same,"SDS Total at Week 4, Mean (SD)",[1]; Female,11.2 (6.98)
same,"SDS Total at Week 4, Median",[1]; Female,11
same,"Change from Baseline, SDS Total at Week 2, LSM Difference (95% CI)",[1]; Male,"2.6 (0.3, 4.8)"
same,"Change from Baseline, SDS Total at Week 4, LSM Difference (95% CI)",[1]; Male,"1.3 (−1.3, 3.8)"
same,"Change from Baseline, SDS Total at Week 2, Mean (SD)",[1]; Male,−2.4 (5.27)
same,"Change from Baseline, SDS Total at Week 2, Median",[1]; Male,−2
same,"Change from Baseline, SDS Total at Week 4, Mean (SD)",[1]; Male,−5.0 (6.14)
same,"Change from Baseline, SDS Total at Week 4, Median",[1]; Male,−4
same,"SDS Total at Week 2, Mean (SD)",[1]; Male,12.8 (5.99)
same,"SDS Total at Week 2, Median",[1]; Male,13
same,"SDS Total at Week 4, Mean (SD)",[1]; Male,10.5 (6.39)
same,"SDS Total at Week 4, Median",[1]; Male,10
same,"Change from Baseline, MADRS Total at Week 1, LSM Difference (95% CI)",[2]; [3],"−0.9 (−2.8, 1.1)"
same,"Change from Baseline, MADRS Total at Week 2, LSM Difference (95% CI)",[2]; [3],"−1.9 (−4.3, 0.5)"
same,"Change from Baseline, MADRS Total at Week 3, LSM Difference (95% CI)",[2]; [3],"−3.5 (−6.2, −0.8)"
same,"Change from Baseline, MADRS Total at Week 4, LSM Difference (95% CI)",[2]; [3],"−3.9 (−6.8, −1.0)"
same,"Change from Baseline, MADRS Total at Week 1, Mean (SD)","[2]; Female, 20 mg/day",−6.6 (6.19)
same,"Change from Baseline, MADRS Total at Week 1, Median","[2]; Female, 20 mg/day",−6
same,"Change from Baseline, MADRS Total at Week 2, Mean (SD)","[2]; Female, 20 mg/day",−10.1 (8.20)
same,"Change from Baseline, MADRS Total at Week 2, Median","[2]; Female, 20 mg/day",−8
same,"Change from Baseline, MADRS Total at Week 3, Mean (SD)","[2]; Female, 20 mg/day",−12.5 (9.74)
same,"Change from Baseline, MADRS Total at Week 3, Median","[2]; Female, 20 mg/day",−11
same,"Change from Baseline, MADRS Total at Week 4, Mean (SD)","[2]; Female, 20 mg/day",−13.5 (10.40)
same,"Change from Baseline, MADRS Total at Week 4, Median","[2]; Female, 20 mg/day",−13
same,"MADRS Total at Week 1, Mean (SD)","[2]; Female, 20 mg/day",26.7 (8.10)
same,"MADRS Total at Week 1, Median","[2]; Female, 20 mg/day",27
same,"MADRS Total at Week 2, Mean (SD)","[2]; Female, 20 mg/day",23.1 (8.76)
same,"MADRS Total at Week 2, Median","[2]; Female, 20 mg/day",25
same,"MADRS Total at Week 3, Mean (SD)","[2]; Female, 20 mg/day",20.8 (10.11)
same,"MADRS Total at Week 3, Median","[2]; Female, 20 mg/day",21
same,"MADRS Total at Week 4, Mean (SD)","[2]; Female, 20 mg/day",19.8 (10.75)
same,"MADRS Total at Week 4, Median","[2]; Female, 20 mg/day",21
same,"Change from Baseline, MADRS Total at Week 1, LSM Difference (95% CI)","[2]; Male, 20 mg/day vs Placebo, MMRM","0.7 (−2.7, 4.1)"
